Test results as given in patent US6514946B1, “Macrolide antibiotics and treatment and prophylaxis of pasteurellosis using the same” (Zaidan Hojin Biseibutsu Kagaku Kenkyu Kai, priority 1999, dated 2003).
≈ marks a conversion by molar mass, not a printed value.

Assays:
S. aureus FDA209P = test: Minimum inhibition concentration (MIC), agar double dilution method; type: cell-based, Staphylococcus aureus; conditions: Mueller hinton agar
Experimental: (§1) Test 1; Minimum Inhibition Concentration (MIC)
(§2) MIC was measured, based on the standard method of Japan Society of Chemotherapy, on a BHI agar medium (Brain heart-infusion agar, made by Difco Laboratories Inc.(USA)) with respect to Pasteurella and on a Mueller hinton agar medium (Mueller hinton agar, made by Difco, Laboratories Inc.(USA)) with respect to the other test bacteria in both cases according to the double dilution method.

[1] = tested on: S. aureus Smith (virulent strain); test: microbe, parasite or virus in culture; type: cell-based, Staphylococcus aureus; conditions: S. aureus Smith (virulent strain); Mueller hinton agar
Experimental: as §1, §2

[2] = tested on: Bacillus subtilis NRRL B-558; test: Minimum inhibition concentration (MIC), agar double dilution method; type: cell-based; conditions: Bacillus subtilis NRRL B-558; Mueller hinton agar
Experimental: as §1, §2

[3] = tested on: Enterobacter aerogenes ATCC13048; test: as above; type: cell-based; conditions: Mueller hinton agar
Experimental: as §1, §2

Escherichia coli NIHJ = test: as above; type: cell-based; conditions: Mueller hinton agar
Experimental: as §1, §2

[4] = tested on: Klebsiella pneumoniae PCI602; test: as above; type: cell-based; conditions: Mueller hinton agar
Experimental: as §1, §2

[5] = tested on: Micrococcus luteus PCI1001; test: as above; type: cell-based; conditions: Mueller hinton agar
Experimental: as §1, §2

[6] = tested on: Pasteurella haemolytica BBPO101 N791; test: as above; type: cell-based; conditions: Pasteurella haemolytica BBPO101 N791, strain from cattle; BHI agar
Experimental: as §1, §2

Proteus vulgaris OX19 = test: as above; type: cell-based; conditions: Mueller hinton agar
Experimental: as §1, §2

[7] = tested on: Salmonella enteritidis 1891; test: as above; type: cell-based; conditions: Mueller hinton agar
Experimental: as §1, §2

Serratia marcescens = test: as above; type: cell-based; conditions: Mueller hinton agar
Experimental: as §1, §2

[8] = tested on: Shigella dysenteriae JS11910; test: as above; type: cell-based; conditions: Shigella dysenteriae JS11910; Mueller hinton agar
Experimental: as §1, §2

[9] = tested on: Staphylococcus aureus 193; test: as above; type: cell-based; conditions: Mueller hinton agar
Experimental: as §1, §2

E. coli K-12 R-5 = test: as above; type: cell-based, Escherichia coli; conditions: Mueller hinton agar
Experimental: as §1, §2

[10] = tested on: Past haemolytica BAPO103 S801; test: as above; type: cell-based, Pasteurella haemolytica; conditions: Past haemolytica BAPO103 S801, strain from poultry; BHI agar
Experimental: as §1, §2

[11] = tested on: Past haemolytica BBPO102 N811; test: as above; type: cell-based, Pasteurella haemolytica; conditions: Past haemolytica BBPO102 N811, strain from cattle; BHI agar
Experimental: as §1, §2

[12] = tested on: Past. multocida BOPO305 M-17; test: as above; type: cell-based, Pasteurella multocida; conditions: Past. multocida BOPO305 M-17, strain from a sheep; BHI agar
Experimental: as §1, §2

[13] = tested on: Past. multocida BSPO302 No. 6; test: as above; type: cell-based, Pasteurella multocida; conditions: Past. multocida BSPO302 No. 6, strain from a pig; BHI agar
Experimental: as §1, §2

ICR mice = test: Toxicity test, intravenous or subcutaneous injection; type: in vivo
[14] = intravenous injection, 0.25 mg/mouse
[15] = intravenous injection, 0.5 mg/mouse
[16] = intravenous injection, 1.5 mg/mouse
[17] = intravenous injection, 2.0 mg/mouse
[18] = subcutaneous injection, 1.0 mg/mouse
[19] = subcutaneous injection, 2.0 mg/mouse
[20] = subcutaneous injection, 3.0 mg/mouse
[21] = subcutaneous injection, 4.0 mg/mouse

| Structure (SMILES) | MIC (S. aureus FDA209P) [µg/mL] | MIC [1] [µg/mL] | MIC [2] [µg/mL] | MIC [3] [µg/mL] | MIC (Escherichia coli NIHJ) [µg/mL] | MIC [4] [µg/mL] | MIC [5] [µg/mL] | MIC [6] [µg/mL] | MIC (Proteus vulgaris OX19) [µg/mL] | MIC [7] [µg/mL] | MIC (Serratia marcescens) [µg/mL] | MIC [8] [µg/mL] | MIC [9] [µg/mL] | MIC (E. coli K-12 R-5) [µg/mL] | MIC [10] [µg/mL] | MIC [11] [µg/mL] | MIC [12] [µg/mL] | MIC [13] [µg/mL] | also measured |
| --- | --- | --- | --- | --- | --- | --- | --- | --- | --- | --- | --- | --- | --- | --- | --- | --- | --- | --- | --- |
| CC[C@H]1OC(=O)C[C@@H](O)[C@H](C)[C@@H](O[C@@H]2O[C@H](C)C(O)C(N(C)C)C2O)[C@@H](CCN(C)C)C[C@@H](C)C(=O)/C=C/C(C)=C/[C@@H]1CN(C)C (stereo partly drawn) [Compound C-1] | 50 (≈ 76.5 µM) | 100 (≈ 153 µM) | 100 (≈ 153 µM) | 50 (≈ 76.5 µM) | 12.5 (≈ 19.1 µM) | 25 (≈ 38.2 µM) | 3.13 (≈ 4.79 µM) | 6.25 (≈ 9.56 µM) | 100 (≈ 153 µM) | 6.25 (≈ 9.56 µM) | >100 | 50 (≈ 76.5 µM) | 50 (≈ 76.5 µM) | >100 | 50 (≈ 76.5 µM) | 6.25 (≈ 9.56 µM) | 6.25 (≈ 9.56 µM) | 12.5 (≈ 19.1 µM) |  |
| CCCCCCN(CCCCCC)CC[C@H]1C[C@@H](C)C(=O)/C=C/C(C)=C/[C@H](CN(CCCCCC)CCCCCC)[C@@H](CC)OC(=O)C[C@@H](O)[C@H](C)[C@H]1O[C@@H]1O[C@H](C)C(O)C(N(C)C)C1O (stereo partly drawn) [Compound C-2] | 6.25 (≈ 6.69 µM) | 6.25 (≈ 6.69 µM) | 12.5 (≈ 13.4 µM) | >100 | >100 | >100 | 6.25 (≈ 6.69 µM) | 12.5 (≈ 13.4 µM) | >100 | >100 | >100 | >100 | 3.13 (≈ 3.35 µM) | >100 | 100 (≈ 107 µM) | 12.5 (≈ 13.4 µM) | 50 (≈ 53.5 µM) | 50 (≈ 53.5 µM) |  |
| CC[C@H]1OC(=O)C[C@@H](O)[C@H](C)[C@@H](O[C@@H]2O[C@H](C)C(O)C(N(C)C)C2O)[C@@H](CCN(C)C2CCCCC2)C[C@@H](C)C(=O)/C=C/C(C)=C/[C@@H]1CN(C)C1CCCCC1 (stereo partly drawn) [Compound C-3] | 1.56 (≈ 1.97 µM) | 3.13 (≈ 3.96 µM) | 3.13 (≈ 3.96 µM) | 12.5 (≈ 15.8 µM) | 3.13 (≈ 3.96 µM) | 3.13 (≈ 3.96 µM) | 0.78 (≈ 0.987 µM) | 0.39 (≈ 0.494 µM) | 12.5 (≈ 15.8 µM) | 1.56 (≈ 1.97 µM) | 50 (≈ 63.3 µM) | 6.25 (≈ 7.91 µM) | 1.56 (≈ 1.97 µM) |  |  | 0.78 (≈ 0.987 µM) | 1.56 (≈ 1.97 µM) | 1.56 (≈ 1.97 µM) |  |
| CC[C@H]1OC(=O)C[C@@H](O)[C@H](C)[C@@H](O[C@@H]2O[C@H](C)C(O)C(N(C)C)C2O)[C@@H](CCN(C)Cc2ccccc2)C[C@@H](C)C(=O)/C=C/C(C)=C/[C@@H]1CN(C)Cc1ccccc1 (stereo partly drawn) [Compound C-4] | 0.39 (≈ 0.484 µM) | 6.25 (≈ 7.75 µM) |  | 12.5 (≈ 15.5 µM) | 6.25 (≈ 7.75 µM) | 6.25 (≈ 7.75 µM) | 0.20 (≈ 0.248 µM) | 0.39 (≈ 0.484 µM) | 12.5 (≈ 15.5 µM) | 1.56 (≈ 1.94 µM) | 100 (≈ 124 µM) | 3.13 (≈ 3.88 µM) | 0.39 (≈ 0.484 µM) | >100 | 6.25 (≈ 7.75 µM) | 0.39 (≈ 0.484 µM) | 0.76 (≈ 0.943 µM) | 1.56 (≈ 1.94 µM) |  |
| CC[C@H]1OC(=O)C[C@@H](O)[C@H](C)[C@@H](O[C@@H]2O[C@H](C)C(O)C(N(C)C)C2O)[C@@H](CCN(Cc2ccccc2)Cc2ccccc2)C[C@@H](C)C(=O)/C=C/C(C)=C/[C@@H]1CN(Cc1ccccc1)Cc1ccccc1 (stereo partly drawn) [Compound C-5] | 12.5 (≈ 13 µM) | 50 (≈ 52.2 µM) | 50 (≈ 52.2 µM) | >100 | >100 | >100 | 6.25 (≈ 6.52 µM) | 50 (≈ 52.2 µM) | >100 | >100 | 100 (≈ 104 µM) | >100 | 12.5 (≈ 13 µM) | >100 | >100 | 50 (≈ 52.2 µM) | >100 | >100 |  |
| CC[C@H]1OC(=O)C[C@@H](O)[C@H](C)[C@@H](O[C@@H]2O[C@H](C)C(O)C(N(C)C)C2O)[C@@H](CCN2CCCC2)C[C@@H](C)C(=O)/C=C/C(C)=C/[C@@H]1CN1CCCC1 (stereo partly drawn) [Compound C-6] |  | 25 (≈ 35.4 µM) | 50 (≈ 70.8 µM) | 50 (≈ 70.8 µM) | 6.25 (≈ 8.85 µM) |  | 1.56 (≈ 2.21 µM) | 1.56 (≈ 2.21 µM) |  | 3.13 (≈ 4.43 µM) | 100 (≈ 142 µM) | 12.5 (≈ 17.7 µM) | 25 (≈ 35.4 µM) | >100 | 25 (≈ 35.4 µM) | 1.56 (≈ 2.21 µM) | 3.13 (≈ 4.43 µM) | 6.25 (≈ 8.85 µM) |  |
| CC[C@H]1OC(=O)C[C@@H](O)[C@H](C)[C@@H](O[C@@H]2O[C@H](C)C(O)C(N(C)C)C2O)[C@@H](CCN2CCCCCC2)C[C@@H](C)C(=O)/C=C/C(C)=C/[C@@H]1CN1CCCCCC1 (stereo partly drawn) [Compound C-7] |  | 3.13 (≈ 4.11 µM) | 6.25 (≈ 8.2 µM) | 3.13 (≈ 4.11 µM) |  | 0.78 (≈ 1.02 µM) | 0.20 (≈ 0.262 µM) | 0.20 (≈ 0.262 µM) | 3.13 (≈ 4.11 µM) | 0.78 (≈ 1.02 µM) | 12.5 (≈ 16.4 µM) | 1.56 (≈ 2.05 µM) |  | 25 (≈ 32.8 µM) |  | 0.20 (≈ 0.262 µM) | 0.10 (≈ 0.131 µM) | 0.39 (≈ 0.512 µM) | Dissection finding (ICR mice; [14]): no abnormal finding; Surviving number (ICR mice; [14]): 2/2; Dissection finding (ICR mice; [15]): no abnormal finding; Surviving number (ICR mice; [15]): 1/2 (immediate death); Dissection finding (ICR mice; [16]): no abnormal finding; Surviving number (ICR mice; [16]): 0/2 (immediate death); Dissection finding (ICR mice; [17]): no abnormal finding; Surviving number (ICR mice; [17]): 0/2 (immediate death); Dissection finding (ICR mice; [18]): no abnormal finding; Surviving number / number of used animals (ICR mice; [18]): 2/2; Dissection finding (ICR mice; [19]): no abnormal finding; Surviving number / number of used animals (ICR mice; [19]): 2/2; Dissection finding (ICR mice; [20]): a little decoloring in kidney; Surviving number / number of used animals (ICR mice; [20]): 2/2; Dissection finding (ICR mice; [21]): no abnormal finding; Surviving number / number of used animals (ICR mice; [21]): 0/1 (died after 30 minutes) |
| CC[C@H]1OC(=O)C[C@@H](O)[C@H](C)[C@@H](O[C@@H]2O[C@H](C)C(O)C(N(C)C)C2O)[C@@H](CCN2CC(C)CC(C)C2)C[C@@H](C)C(=O)/C=C/C(C)=C/[C@@H]1CN1CC(C)CC(C)C1 (stereo partly drawn) [DMP-MT] | 1.56 (≈ 1.97 µM) | 6.25 (≈ 7.91 µM) |  | 25 (≈ 31.6 µM) | 6.25 (≈ 7.91 µM) | 6.25 (≈ 7.91 µM) | 1.56 (≈ 1.97 µM) | 0.39 (≈ 0.494 µM) | 25 (≈ 31.6 µM) | 3.13 (≈ 3.96 µM) | 100 (≈ 127 µM) | 12.5 (≈ 15.8 µM) | 3.13 (≈ 3.96 µM) | >100 | 1.56 (≈ 1.97 µM) | 0.39 (≈ 0.494 µM) | 0.39 (≈ 0.494 µM) | 0.78 (≈ 0.987 µM) |  |
| CC[C@H]1OC(=O)C[C@@H](O)[C@H](C)[C@@H](O[C@@H]2O[C@H](C)C(O)C(N(C)C)C2O)[C@@H](CCN2CCC(C)CC2)C[C@@H](C)C(=O)/C=C/C(C)=C/[C@@H]1CN1CCC(C)CC1 (stereo partly drawn) [MP-MT] | 1.56 (≈ 2.05 µM) |  | 25 (≈ 32.8 µM) | 12.5 (≈ 16.4 µM) |  | 3.13 (≈ 4.11 µM) | 0.78 (≈ 1.02 µM) | 0.39 (≈ 0.512 µM) | 12.5 (≈ 16.4 µM) | 3.13 (≈ 4.11 µM) | 50 (≈ 65.6 µM) | 6.25 (≈ 8.2 µM) | 1.56 (≈ 2.05 µM) | >100 | 3.13 (≈ 4.11 µM) | 0.39 (≈ 0.512 µM) | 0.39 (≈ 0.512 µM) | 0.39 (≈ 0.512 µM) |  |
